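Each compound was tested at five concentrations against cells in 96-well plates for 48 hours. The concentration for 50% growth inhibition is given as GI50.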 Calls of active or inactive are those of the source. Rule as the data show it: active = GI50 up to about 1.1 µM and inactive = higher.
Assays:
Test in all cases: NCI anticancer screen, dose series, 48 h
HOP-92 = system: HOP-92
RXF 631 = system: RXF 631
KM-20L2 = system: KM-20L2
SW-620 = system: SW-620
COLO 205 = system: COLO 205
KM12 = system: KM12
SNB-78 = system: SNB-78
UACC-257 = system: UACC-257
SN12C = system: SN12C
EKVX = system: EKVX
NCI-H460 = system: NCI-H460
UACC-62 = system: UACC-62
MOLT-4 = system: MOLT-4
K562 = system: K562
SF-539 = system: SF-539
XF498 = system: XF498
ACHN = system: ACHN
OVCAR-4 = system: OVCAR-4
NCI-H23 = system: NCI-H23
OVCAR-5 = system: OVCAR-5
RPMI-8226 = system: RPMI-8226
IGROV-1 = system: IGROV-1
LXFL 529 = system: LXFL 529
HOP-18 = system: HOP-18
RXF 393 = system: RXF 393
M19-MEL = system: M19-MEL
CCRF-CEM = system: CCRF-CEM
SK-MEL-5 = system: SK-MEL-5
SNB-19 = system: SNB-19
OVCAR-8 = system: OVCAR-8
A549 = system: A549
SNB-75 = system: SNB-75
HL-60 = system: HL-60
LOX IMVI = system: LOX IMVI
DMS-273 = system: DMS-273
NCI-H522 = system: NCI-H522
HT-29 = system: HT-29
DLD-1 = system: DLD-1
HCT-116 = system: HCT-116
M14 = system: M14
SF-295 = system: SF-295
NCI-H226 = system: NCI-H226
CAKI-1 = system: CAKI-1
DMS-114 = system: DMS-114
UO-31 = system: UO-31
U-251 = system: U-251
SK-MEL-28 = system: SK-MEL-28
SR = system: SR
HOP-62 = system: HOP-62
SK-OV-3 = system: SK-OV-3
786-0 = system: 786-0
HCC 2998 = system: HCC 2998
OVCAR-3 = system: OVCAR-3
TK-10 = system: TK-10
SK-MEL-2 = system: SK-MEL-2
SF-268 = system: SF-268
Malme-3M = system: Malme-3M
A498 = system: A498

Measured: GI50

C=C[C@@]12CCCCC1C/C(=C(/O)OC)C(=O)C2 (stereo partly specified)
inactive: HOP-92 > 100 µM | RXF 631 > 100 µM | KM-20L2 > 100 µM | SW-620 > 100 µM | COLO 205 > 100 µM | KM12 > 100 µM | SNB-78 > 100 µM | UACC-257 > 100 µM | SN12C > 100 µM | EKVX > 100 µM | NCI-H460 > 100 µM | UACC-62 > 100 µM | MOLT-4 > 100 µM | K562 > 100 µM | SF-539 > 100 µM | XF498 > 100 µM | ACHN > 100 µM | OVCAR-4 > 100 µM | NCI-H23 > 100 µM | OVCAR-5 > 100 µM | RPMI-8226 > 100 µM | IGROV-1 > 100 µM | LXFL 529 > 100 µM | HOP-18 > 100 µM | RXF 393 > 100 µM | M19-MEL > 100 µM | CCRF-CEM > 100 µM | SK-MEL-5 > 100 µM | SNB-19 > 100 µM | OVCAR-8 > 100 µM | A549 > 100 µM | SNB-75 > 100 µM | HL-60 > 100 µM | LOX IMVI > 100 µM | DMS-273 > 100 µM | NCI-H522 > 100 µM | HT-29 > 100 µM | DLD-1 > 100 µM | HCT-116 > 100 µM | M14 > 100 µM | SF-295 > 100 µM | NCI-H226 > 100 µM | CAKI-1 > 100 µM | DMS-114 > 100 µM | UO-31 > 100 µM | U-251 > 100 µM | SK-MEL-28 > 100 µM | SR > 100 µM | HOP-62 > 100 µM | SK-OV-3 > 100 µM | 786-0 > 100 µM | HCC 2998 > 100 µM | OVCAR-3 > 100 µM | TK-10 > 100 µM | SK-MEL-2 > 100 µM | SF-268 > 100 µM

Cc1cc(C)nc(Sc2c([N+](=O)[O-])ncn2C)n1
inactive: HOP-92 > 100 µM | RXF 631 > 100 µM | SW-620 > 100 µM | COLO 205 > 100 µM | KM12 > 100 µM | SNB-78 > 100 µM | UACC-257 > 100 µM | Malme-3M 94.6 µM | SN12C > 100 µM | EKVX > 100 µM | NCI-H460 > 100 µM | UACC-62 > 100 µM | MOLT-4 69.5 µM | K562 > 100 µM | SF-539 > 100 µM | XF498 > 100 µM | ACHN > 100 µM | OVCAR-4 > 100 µM | NCI-H23 > 100 µM | OVCAR-5 > 100 µM | RPMI-8226 > 100 µM | IGROV-1 > 100 µM | LXFL 529 99.8 µM | HOP-18 20.6 µM | M19-MEL > 100 µM | CCRF-CEM 56.9 µM | SK-MEL-5 > 100 µM | SNB-19 > 100 µM | OVCAR-8 > 100 µM | A549 > 100 µM | SNB-75 > 100 µM | LOX IMVI 57.1 µM | DMS-273 > 100 µM | NCI-H522 > 100 µM | HT-29 > 100 µM | DLD-1 > 100 µM | HCT-116 > 100 µM | M14 > 100 µM | SF-295 > 100 µM | NCI-H226 > 100 µM | CAKI-1 > 100 µM | DMS-114 > 100 µM | UO-31 > 100 µM | U-251 > 100 µM | SK-MEL-28 > 100 µM | SR > 100 µM | HOP-62 > 100 µM | SK-OV-3 > 100 µM | 786-0 > 100 µM | HCC 2998 > 100 µM | OVCAR-3 > 100 µM | TK-10 > 100 µM | A498 > 100 µM | SK-MEL-2 > 100 µM | SF-268 > 100 µM
